# In patent US8088761B2, “Enzyme inhibitors” (Cancer Research Technology Limited, priority 2005, dated 2012):
# Key:
# HCT116 cells = assay: Cell viability assay (MTT) in HCT116 cell line; type: cell-based; settings: Homo sapiens, HCT-116, 72 hrs, IC50 range, read-out: HCT116 cell growth inhibition
# Procedure, shortened: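 MTT read-out (4 hrs, 37 °C, DMSO extraction) following 72 hrs of treatment with 0-50 μM Aurora inhibitor. HCT116 cells were plated a day earlier and tested in triplicate; IC50 derived from the curve.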
# Aurora-A = target: T1, Aurora-A (Homo sapiens, UniProt O14965); assay: Flashplate Aurora A enzyme inhibition assay; type: biochemical; settings: Flashplate assay; IC50 range; read-out: Aurora-A inhibition
# T1 sequence (O14965 1-403): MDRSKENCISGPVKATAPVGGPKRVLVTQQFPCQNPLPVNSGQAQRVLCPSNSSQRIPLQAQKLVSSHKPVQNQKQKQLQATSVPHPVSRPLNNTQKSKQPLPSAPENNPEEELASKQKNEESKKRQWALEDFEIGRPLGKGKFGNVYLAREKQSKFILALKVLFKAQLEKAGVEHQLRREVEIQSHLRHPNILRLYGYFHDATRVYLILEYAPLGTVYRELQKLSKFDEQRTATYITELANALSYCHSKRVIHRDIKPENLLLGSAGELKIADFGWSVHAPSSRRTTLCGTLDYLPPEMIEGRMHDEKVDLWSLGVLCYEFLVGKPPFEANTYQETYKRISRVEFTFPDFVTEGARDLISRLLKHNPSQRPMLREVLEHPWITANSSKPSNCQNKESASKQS
# Procedure, shortened: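 This is a radiometric Flashplate format: plates were precoated with DTT, and compound (in 2% DMSO) was mixed with kinase buffer (pH 7.5 Tris, MgCl2, NaCl) containing 1 mM MBP, 20 μM ATP and ^33P-ATP. The reaction was started with 250 ng Aurora-A per well and incubated 2 h at RT. It was then stopped by 10 mM sodium pyrophosphate washing, and plates were scintillation-counted.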
IC50 (HCT116 cells) [nM],IC50 (Aurora-A) [nM],SMILES
500 to 2000,< 500,"NCc1ccc(-c2nc3c(N4CCC(Cc5ccccc5)CC4)c(Br)cnc3[nH]2)cc1 [Example 133, (4-(7-(4-Benzylpiperidin-1-yl)-6-bromo-3H-imidazo[4,5-b]pyridin-2-yl)phenyl)methanamine]"
500 to 2000,< 500,"NCc1ccc(-c2nc3c(N4CCC(Oc5ccccc5)CC4)c(Br)cnc3[nH]2)cc1 [Example 135, (4-(6-Bromo-7-(4-phenoxypiperidin-1-yl)-3H-imidazo[4,5-b]pyridin-2-yl)phenyl)methanamine]"
500 to 2000,< 500,"Clc1cnc2[nH]c(-c3ccc(N4CCNCC4)cc3)nc2c1N1CCN(Cc2cccnc2)CC1 [Example 137, 6-Chloro-2-(4-(piperazin-1-yl)phenyl)-7-(4-(pyridin-3-ylmethyl)piperazin-1-yl)-3H-imidazo[4,5-b]pyridine]"
500 to 2000,< 500,"Clc1cnc2[nH]c(-c3ccc(Cn4cccn4)cc3)nc2c1N1CCN(Cc2cccnc2)CC1 [Example 138, 2-(4-((1H-Pyrazol-1-yl)methyl)phenyl)-6-chloro-7-(4-(pyridin-3-ylmethyl)piperazin-1-yl)-3H-imidazo[4,5-b]pyridine]"

# The next lines start with the compound.
SMILES,IC50 (HCT116 cells) [nM],IC50 (Aurora-A) [nM]
"CC(C)(C)OC(=O)NCc1ccc(-c2nc3c(N4CCC(Oc5ccccc5)CC4)c(Br)cnc3[nH]2)cc1 [Example 134, tert-Butyl 4-(6-bromo-7-(4-phenoxypiperidin-1-yl)-3H-imidazo[4,5-b]pyridin-2-yl)benzylcarbamate]",< 500,< 500
"CC(C)(C)OC(=O)N1CCN(c2ccc(-c3nc4c(N5CCN(Cc6cccnc6)CC5)c(Cl)cnc4[nH]3)cc2)CC1 [Example 136, tert-Butyl 4-(4-(6-chloro-7-(4-(pyridin-3-ylmethyl)piperazin-1-yl)-3H-imidazo[4,5-b]pyridin-2-yl)phenyl)piperazine-1-carboxylate]",2000 to 50000,500 to 2000
"COc1ccc(-c2nc3c(N4CCN(Cc5cncnc5)CC4)c(Cl)cnc3[nH]2)cc1 [Example 139, 6-Chloro-2-(4-methoxyphenyl)-7-(4-(pyrimidin-5-ylmethyl)piperazin-1-yl)-3H-imidazo[4,5-b]pyridine]",500 to 2000,< 500
"CC(C)(C)OC(=O)N1CCN(Cc2ccc(-c3nc4c(N5CCN(Cc6cncnc6)CC5)c(Cl)cnc4[nH]3)cc2)CC1 [Example 140, tert-Butyl 4-(4-(6-chloro-7-(4-(pyrimidin-5-ylmethyl)piperazin-1-yl)-3H-imidazo[4,5-b]pyridin-2-yl)benzyl)piperazine-1-carboxylate]",< 500,< 500
"Clc1cnc2[nH]c(-c3ccc(CN4CCNCC4)cc3)nc2c1N1CCN(Cc2cncnc2)CC1 [Example 141, 6-Chloro-2-(4-(piperazin-1-ylmethyl)phenyl)-7-(4-(pyrimidin-5-ylmethyl)piperazin-1-yl)-3H-imidazo[4,5-b]pyridine]",500 to 2000,< 500
"COc1ccc(-c2nc3c(N4CCN(C(C)c5ccncc5)CC4)c(Cl)cnc3[nH]2)cc1 (stereo not drawn) [Example 142, 6-Chloro-2-(4-methoxyphenyl)-7-(4-(1-(pyridin-4-yl)ethyl)piperazin-1-yl)-3H-imidazo[4,5-b]pyridine]",< 500,< 500
"CCN1CCN(c2c(Cl)cnc3[nH]c(-c4ccc(Cn5cccn5)cc4)nc23)CC1 [Example 143, 2-(4-((1H-pyrazol-1-yl)methyl)phenyl)-6-chloro-7-(4-ethylpiperazin-1-yl)-3H-imidazo[4,5-b]pyridine]",< 500,< 500
"COc1ccc(-c2nc3c(N4CCN(Cc5csc(C)n5)CC4)c(Br)cnc3[nH]2)cc1 [Example 144, 4-((4-(6-Bromo-2-(4-methoxyphenyl)-3H-imidazo[4,5-b]pyridin-7-yl)piperazin-1-yl)methyl)-2-methylthiazole]",< 500,< 500
